# Assay results reported in US20240264164A1, “DETERGENTS AND METHODS” (OXFORD UNIVERSITY INNOVATION LIMITED, priority 2021, published 2024).
# Tests used:
# [1] = biological target: T1, membrane protein AqpZ (Escherichia coli, UniProt P60844); experiment: Stability of AqpZ in detergent solution after extraction from native membrane and IMAC; design: made in house; conditions: extraction with 1% w/v detergent solution, IMAC purification
# Procedure: Different solutions of the membrane protein AqpZ were prepared by extracting the protein from its native membrane using a 1% w/v detergent solution and then purifying the samples using IMAC. The following solutions were prepared: one containing the hybrid detergent, one containing DDM, one containing C8E4 and one containing a mixture of C8E4 and DDM. AgpZ precipitated from the solutions containing C8E4, even when DDM was also present.
# [2] = biological target: T1, membrane protein AqpZ; experiment: nano-electrospray ionization mass spectrometry of AqpZ in detergent (FIG. 9); design: made in house; host or cells: bacterial culture (LB broth, ampicillin); conditions: nESI, Q Exactive
# Procedure: The samples were analysed using a Q-Exactive mass spectrometer using the following instrumental parameters: • Injection flatapole: 7.9 V • Inter flatapole lens: 6.9 V • Bent flatapole: 5.9 V • Transfer multipole: 4 V • Capillary voltage: 1.2 kV • Source temperature: 100° C. • Voltage applied to the C-trap entrance lens: 5.8 V • In-source trapping voltage: 0-200 V • Higher-energy collisional dissociation (HCD) cell voltage: 100-200 V • HCD cell pressure: 9×10^−10 mBar • Noise level parameter: 3 • Microscans: 10 • Resolution: 17,500
# The suitability of the hybrid detergent in nano-electrospray ionization was investigated using a Q Exactive mass spectrometer. The results are shown in FIG. 9, along with results obtained using DDM and C8E4.
# T1 sequence (P60844 whole entry): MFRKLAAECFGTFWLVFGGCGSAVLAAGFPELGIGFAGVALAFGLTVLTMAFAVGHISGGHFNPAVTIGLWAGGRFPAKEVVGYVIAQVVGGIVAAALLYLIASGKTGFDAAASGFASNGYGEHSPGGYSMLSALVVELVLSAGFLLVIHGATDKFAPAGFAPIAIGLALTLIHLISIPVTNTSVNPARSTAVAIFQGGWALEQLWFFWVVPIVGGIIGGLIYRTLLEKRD
SMILES,stability of AqpZ in detergent solution [1],level of delipidation of AqpZ [2],lipid-bound states of AqpZ detected [2]
"CCCCCCCCOCCOCCOCCOCCO [C8E4, tetraethylene glycol monooctyl ether]",precipitated,fully delipidating,
"CCCCCCCCCCCCO[C@@H]1O[C@H](CO)[C@@H](O[C@H]2O[C@H](CO)[C@@H](O)[C@H](O)[C@H]2O)[C@H](O)[C@H]1O [DDM, n-dodecyl-β-D-maltoside]",,relatively low levels of delipidation,detected
CCCCCCCCCCCCOCC(COCCOCCOCCOCCO)Oc1ccc(OCCOC2OC(CO)C(C3OC(CO)C(O)C(O)C3O)C(O)C2O)cc1 (stereo not drawn),stable,,detected
